The assay deals with Phosphorylation of STAT6 in human A549 cells. Put plainly: Phosphorylated STAT6 (pSTAT6) flow cytometry assay in human A549 cells. The class given is cell-based. Particulars: read-out: STAT6 IL4 pSTAT6 assay in A549 cells: Average IC50. The source says:
Example 3. Phosphorylated STAT6 (pSTAT6) Flow Cytometry Assay in Human A549 Cells
Phosphorylation of STAT6 in human A549 cells was quantitatively measured using flow cytometry technology.
Background: Flow cytometry measures light scatter and fluorescence of single cells or particles in a stream.

Usually IC50 stands for the concentration that inhibits the measured activity by half. For the compound `CCc1ccncc1-c1cc(C(=O)N2Cc3cnn(C)c3C2)cc2cc(C3=CCCN(C(=O)CCn4ccnn4)C3)n(CC3CC3)c12` [Example I-727], the IC50 was under 100 nM.

On to `COc1ccccc1-c1cc(C2=CCCN(C(=O)CCn3ccnn3)C2)c(F)c2[nH]c(C(=O)N3CCN(c4c(C)ccc5[nH]ncc45)CC3)cc12` [Example I-959], for which the IC50 was under 100 nM.

Consider `COc1ccccc1-c1cc(C2=CCCN(C(=O)CCn3ccnn3)C2)c(F)c2[nH]c(C(=O)N3CCN(c4ccnn4C)CC3)cc12` [Example I-1025], for which the IC50 was under 100 nM.

Take `COc1ccccc1-c1cc(C2=CCCN(C(=O)CCn3ccnn3)C2)c(F)c2[nH]c(C(=O)N3CCN(c4nc(C)nc5ccccc45)CC3)cc12` [Example I-923]: the IC50 is under 100 nM.

With `COc1cc(F)cnc1N1CCN(C(=O)c2cc3c(-c4cccc5c4CC[C@H]5O)cc(C4=CCCN(C(=O)CCn5ccnn5)C4)c(F)c3[nH]2)CC1` [Example I-658], the IC50 is under 100 nM.

As to `COc1ccccc1-c1cc(C2=CCCN(C(=O)CCn3ccnn3)C2)c(F)c2[nH]c(C(=O)N3Cc4cn(-c5ncccc5OC)cc4C3)cc12` [Example I-417], the IC50 is under 100 nM.

Turning to “(R)-1-(3-(7-fluoro-2-(4-(5-fluoro-3-methoxypyridin-2-yl)piperazine-1-carbonyl)-4-(1-methylpyrrolidin-3-yl)-1H-indol-6-yl)-5,6-dihydropyridin-1(2H)-yl)-3-(1H-1,2,3-triazol-1-yl)propan-1-one [Example I-812]”, the IC50 is under 100 nM.

For `COc1cc(F)cnc1N1CCN(C(=O)c2cc3c(-c4cnccc4C(C)C)cc(C4=CCCN(C(=O)CCn5ccnn5)C4)c(F)c3[nH]2)CC1` [Example I-668], the IC50 is over 100000 nM.

With `COc1ccccc1-c1cc(C2=CCCN(C(=O)CCn3ccnn3)C2)c(F)c2[nH]c(C(=O)N3CCN(c4c(OC)cccc4Oc4ccccc4)CC3)cc12` [Example I-414], the IC50 fell in the range of 100 to 1000 nM.

For `COc1cccnc1N1CCN(C(=O)c2cc3c(-c4ccc5ncccc5c4OC)cc(C4=CCCN(C(=O)CCn5ccnn5)C4)c(F)c3[nH]2)CC1` [Example I-577], the IC50 is under 100 nM.

Consider `CCSc1ccccc1-c1cc(C2=CCCN(C(=O)CCn3ccnn3)C2)c(F)c2[nH]c(C(=O)N3CCN(c4ncc(F)cc4OC)CC3)cc12` [Example I-679], for which the IC50 was under 100 nM.

Take `CCC1=C(c2cc(C3=CCCN(C(=O)CCn4ccnn4)C3)c(F)c3[nH]c(C(=O)N4CCN(c5ncc(F)cc5OC)CC4)cc23)CN(C)CC1` [Example I-730]: the IC50 was under 100 nM.

Consider `COc1cc(F)cnc1N1CCN(C(=O)c2cc3c(-c4cccc(C5(C#N)CC5)c4)cc(C4=CCCN(C(=O)CCn5ccnn5)C4)c(F)c3[nH]2)CC1` [Example I-649], for which the IC50 is under 100 nM.

For the compound `COc1ccncc1-c1cc(C2=CCCN(C(C)=O)C2)c(F)c2[nH]c(C(=O)N3CCN(c4ncc(F)cc4OC)CC3)cc12` [Example I-696], the IC50 is over 100000 nM.

In the case of `COc1ccccc1-c1cc(C2=CCCN(C(=O)CCn3ccnn3)C2)c(F)c2[nH]c(C(=O)N3CCN(CC4(C#N)CC4)CC3)cc12` [Example I-1014], the IC50 was under 100 nM.

With `COc1cc(F)cnc1N1CCN(C(=O)c2cc3c(-c4ccc(C#N)c(C)c4)cc(C4=CCCN(C(=O)CCn5ccnn5)C4)c(F)c3[nH]2)CC1` [Example I-1139], the IC50 is under 100 nM.

On to `COc1ccccc1-c1cc(C2=CCCN(C(=O)CCn3ccnn3)C2)c(F)c2[nH]c(C(=O)N3CCN(c4cc(C)cc5c[nH]nc45)CC3)cc12` [Example I-921], for which the IC50 lay in the range of 100 to 1000 nM.

Take `CCOCc1cc(-c2cc(C3=CCCN(C(=O)CCn4ccnn4)C3)c(F)c3[nH]c(C(=O)N4CCN(c5ncc(F)cc5OC)CC4)cc23)ccc1F` [Example I-1128]: the concentration for half-maximal inhibition (IC50) is under 100 nM.

Take `COc1ccccc1-c1cc(C2=CCCN(C(=O)CCn3ccnn3)C2)c(F)c2[nH]c(C(=O)N3CCc4ccc(N)cc4C3)cc12` [Example I-1012]: the IC50 is under 100 nM.

Take `CCc1ccc(-c2cc(C3=CCCN(C(=O)CCn4ccnn4)C3)c(F)c3[nH]c(C(=O)N4Cc5cnn(CC)c5C4)cc23)c(C)n1` [Example I-761]: the IC50 was over 100000 nM.

On to `COc1cc(F)cnc1N1CCN(C(=O)c2cc3c(-c4cc(C)nc(C)c4)cc(C4=CCCN(C(=O)CCn5ccnn5)C4)c(F)c3[nH]2)CC1` [Example I-632], for which the IC50 was under 100 nM.

Turning to `COc1ccccc1-c1cc(C2=CCCN(C(=O)CCn3ccnn3)C2)c(F)c2[nH]c(C(=O)N3CCN(c4ccccc4OC)CC3)cc12` [Example I-349], the IC50 was under 100 nM.

On to `COc1cc(F)cnc1N1CCN(C(=O)c2cc3c(-c4ccc(=O)n(Cc5ccccc5)c4)cc(C4=CCCN(C(=O)CCn5ccnn5)C4)c(F)c3[nH]2)CC1` [Example I-1136], for which the IC50 was under 100 nM.

As to `COc1ccccc1-c1cc(C2=CCCN(C(=O)CCn3ccnn3)C2)c(F)c2[nH]c(C(=O)N3CCc4ncncc4C3)cc12` [Example I-1010], the IC50 was under 100 nM.

With `COc1ccccc1/C=C/c1cc(C2=CCCN(C(=O)CCn3ccnn3)C2)c(F)c2[nH]c(C(=O)N3CCN(c4ncc(F)cc4OC)CC3)cc12` [Example I-1130], the IC50 fell in the range of 100 to 1000 nM.

As for `COc1ccccc1-c1cc(C2=CCCN(C(=O)CCn3ccnn3)C2)c(F)c2[nH]c(C(=O)N3CCN(c4cc(=O)[nH]cc4F)CC3)cc12` [Example I-779], the IC50 was under 100 nM.

As to `COc1cc(F)cnc1N1CCN(C(=O)c2cc3c(-c4ccn(-c5ccccc5)n4)cc(C4=CCCN(C(=O)CCn5ccnn5)C4)c(F)c3[nH]2)CC1` [Example I-1113], the IC50 was in the range of 100 to 1000 nM.

Consider `COc1ccccc1-c1cc(C2=CCCN(C(=O)CCn3ccnn3)C2)c(F)c2[nH]c(C(=O)N3CCN(c4ccccc4C)CC3)cc12` [Example I-421], for which the IC50 was under 100 nM.

For `CN(C)C(=O)c1cc2ccc([C@H]3CCCN(C(=O)CCn4ccnn4)C3)c(F)c2[nH]1` (single isomer, unassigned) [Example I-1187], the IC50 was under 100 nM.

As to `CCOc1ccncc1-c1cc(C2=CCCN(C(=O)CCn3ccnn3)C2)c(F)c2[nH]c(C(=O)N3CCN(c4nccnc4OC)CC3)cc12` [Example I-478], the IC50 is under 100 nM.

For `CCc1ccncc1-c1cc(C2=CCCN(C(=O)CC(=O)O)C2)c(F)c2[nH]c(C(=O)N3Cc4cnn(CC)c4C3)cc12` [Example I-787], the IC50 is under 100 nM.

On to `CN(C)C(=O)c1cc2cc(C3=CCCN(C(=O)CCn4ccnn4)C3)cc(-c3ccc4c(c3)NC(=O)C4)c2o1` [Example I-869], for which the IC50 was under 100 nM.

On to `COc1ccccc1-c1cc(C2=CCCN(C(=O)CCn3ccnn3)C2)c(F)c2[nH]c(C(=O)N3CCN(c4ccc5nn(C)cc5c4C)CC3)cc12` [Example I-945], for which the IC50 was in the range of 100 to 1000 nM.

`CCc1ccncc1-c1cc(C2=CCCN(C(=O)CC(=O)O)C2)c(F)c2[nH]c(C(=O)N3CCN(c4ncc(F)cc4OC)CC3)cc12` [Example I-786]: the IC50 is under 100 nM.

With `CN(C)C(=O)c1cc2cc(C3=CCCN(C(=O)CCn4ccnn4)C3)cc(-c3ccc4[nH]ncc4c3)c2o1` [Example I-1080], the IC50 is under 100 nM.

With `CCN1CCCCC1c1cc(C2=CCCN(C(=O)CCn3ccnn3)C2)c(F)c2[nH]c(C(=O)N3CCN(c4ncc(F)cc4OC)CC3)cc12` (stereo not drawn) [Example I-784], the IC50 is under 100 nM.

With `COc1ccccc1-c1cc(C2=CCCN(C(=O)CCn3ccnn3)C2)c(F)c2[nH]c(C(=O)N3CCN(c4cc(F)c5nc(C)n(C(C)C)c5c4)CC3)cc12` [Example I-340], the IC50 was under 100 nM.

As for `COc1ccccc1-c1cc(C2=CCCN(C(C)=O)C2)c(F)c2sc(C(=O)N(C)C)cc12` [Example I-552], the IC50 is 100 to 1000 nM.

For the compound `COc1ccccc1-c1cc(C2=CCCN(C(=O)CCn3ccnn3)C2)c(F)c2[nH]c(C(=O)N3CCN(c4[nH]ncc4OC)CC3)cc12` [Example I-508], the IC50 was under 100 nM.

Consider `COc1ccncc1-c1cc(C2=CCCN(C(C)=O)C2)c(F)c2sc(C(=O)N(C)C)cc12` [Example I-555], for which the IC50 lay in the range of 100 to 1000 nM.

Take `COc1cc(F)cnc1N1CCN(C(=O)c2cc3c(C4=CCCOC4)cc(C4=CCCN(C(=O)CCn5ccnn5)C4)c(F)c3[nH]2)CC1` [Example I-1126]: the IC50 was under 100 nM.

Turning to `CCc1ccncc1-c1cc(C2=CCCC(C(=O)O)C2)c(F)c2[nH]c(C(=O)N3CCN(c4ncc(F)cc4OC)CC3)cc12` (stereo not drawn) [Example I-1205], the IC50 was in the range of 1000 to 10000 nM.

For the compound `CCn1cc2c(n1)CN(C(=O)c1cc3c(-c4ccccc4OC)cc(C4=CCCN(C(=O)CCn5ccnn5)C4)c(F)c3[nH]1)C2` [Example I-505], the IC50 fell in the range of 10000 to 100000 nM.

On to `CCc1cc(C)ncc1-c1cc(C2=CCCN(C(=O)CCn3ccnn3)C2)c(F)c2[nH]c(C(=O)N3CCN(c4ncc(F)cc4OC)CC3)cc12` [Example I-742], for which the IC50 was under 100 nM.

With `CCOC(=O)CC(=O)N1CCC=C(c2cc3cc(C(=O)N4CCN(c5ncc(F)cc5OC)CC4)cc(-c4ccc(C)nc4CC)c3n2CC2CC2)C1` [Example I-1173], the IC50 is 100 to 1000 nM.

Regarding `CCc1cccnc1N1CCN(C(=O)c2cc3c(-c4ccccc4OC)cc(C4=CCCN(C(=O)CCn5ccnn5)C4)c(F)c3[nH]2)CC1` [Example I-327], the IC50 was under 100 nM.

Regarding `COc1ccccc1-c1cc(C2=CCCN(C(=O)CCn3ccnn3)C2)c(F)c2[nH]c(C(=O)N3CCN(c4nc(OC(F)F)ccc4OC)CC3)cc12` [Example I-490], the IC50 is over 100000 nM.

For the compound `COc1cccnc1N1CCN(C(=O)c2cc3c(-c4cccc(C)c4OC)cc(C4=CCCN(C(=O)CCn5ccnn5)C4)c(F)c3[nH]2)CC1` [Example I-560], the IC50 was under 100 nM.

`COc1ccncc1-c1cc(C2=CCCN(C(=O)CCn3ccnn3)C2)c(F)c2[nH]c(C(=O)N3CCN(c4ncc(C5CC5)cc4OC)CC3)cc12` [Example I-438]: the concentration for half-maximal inhibition (IC50) was under 100 nM.

On to `COc1ccccc1-c1cc(C2=CCCN(C(=O)CCn3ccnn3)C2)c(F)c2[nH]c(C(=O)N3CCCN(c4ccc(F)cn4)CC3)cc12` [Example I-850], for which the IC50 was under 100 nM.

On to `COc1ccccc1-c1cc(C2=CCCN(C(=O)CCn3ccnn3)C2)c(F)c2[nH]c(C(=O)N3CCN(c4cc(C)c(=O)n(C)c4)CC3)cc12` [Example I-1023], for which the IC50 was under 100 nM.
